Values joined by “and” are separate entries in the source; they are usually repeats but may differ in a detail not shown here. Identical values can stand only once.
Legend:
[1] = Liver microsomal metabolic stability
[2] = mice received ca. 0.4 mg/kg; ref Bhatt et al. 2020; cited from earlier work
[3] = Hepatocyte metabolic stability; conditions: Sprague Dawley, rat, hepatocytes
[4] = Prediction of in vivo CLH from in vitro CLint; assay type: in vitro ADME, mouse; conditions: for Predicted in vivo CLH: mouse
[5] = Liver microsomal binding; assay type: in vitro ADME; conditions: human, liver microsomes, pH 7.4
[6] = test system: Caco-2 cells; assay: Caco-2 bidirectional permeability; conditions: Caco-2, without inhibitor mix
[7] = Caco-2 bidirectional permeability; conditions: human, Caco-2, pH 7.4
[8] = Liver microsomal metabolic stability; assay type: in vitro ADME, mouse
[9] = UHPLC/MS metabolite characterisation, liver microsome incubations; assay type: in vitro ADME; conditions: 5 minute rat liver microsome incubation
[10] = Efficacy in a mouse model; assay type: in vivo; conditions: corresponds to ca. 0.4 mg/kg in mice
[11] = test system: Escherichia coli GUS; conditions: ref Pellock et al. 2018; cited from earlier work
[12] = Liver microsomal binding; assay type: in vitro ADME; conditions: ICR/CD-1, mouse, liver microsomes, pH 7.4
[13] = Mouse pharmacokinetic study; assay type: in vivo, Swiss albino mice; conditions: mice; for AUC(0-t): AUClast
[14] = UHPLC/MS metabolite characterisation, liver microsome incubations; assay type: in vitro ADME; conditions: 15 minute human microsome incubation
[15] = Hepatocyte metabolic stability; conditions: human, hepatocytes
[16] = Prediction of in vivo CLH from in vitro CLint; assay type: in vitro ADME, rat; conditions: for Predicted in vivo CLH: rat
[17] = Hepatocyte metabolic stability; conditions: ICR/CD-1, mouse, hepatocytes
[18] = UHPLC/MS metabolite characterisation, liver microsome incubations; assay type: in vitro ADME; conditions: 5 minute mouse liver microsome incubation
[19] = Plasma protein binding; assay type: in vitro ADME; conditions: both, human, pH 7.4, Mean fu (fraction unbound), 37 °C
[20] = Plasma protein binding; assay type: in vitro ADME; conditions: rat plasma
[21] = Liver microsomal metabolic stability; assay type: in vitro ADME, rat
[22] = test system: microbial versus mammalian β-glucuronidases; conditions: ref Pellock et al. 2018; cited from earlier work
[23] = Plasma protein binding; assay type: in vitro ADME; conditions: male, CD-1, mouse, pH 7.4, Mean fu (fraction unbound), 37 °C
[24] = test system: human hepatocytes; assay: UHPLC/MS metabolite characterisation, hepatocyte incubations; assay type: in vitro ADME; conditions: 120 minute human hepatocyte incubation
[25] = Prediction of in vivo CLH from in vitro CLint; assay type: in vitro ADME
[26] = Liver microsomal binding; assay type: in vitro ADME; conditions: Sprague Dawley, rat, liver microsomes, pH 7.4
[27] = ICR/CD-1, mouse, liver microsomes, pH 7.4
[28] = Sprague Dawley, rat, liver microsomes, pH 7.4

Work on `COc1ccc2c(c1)[C@]13CCCC[C@@H]1[C@H](C2)N(C)CC3` [dextromethorphan, reference compound] yielded a microsomal CLint at 1 μM ([1]; human, microsomes, pH 7.4) of 44.8 µL/min/mg.

For `C1CCc2c(c(N3CCOCC3)nc3sc4c(N5CCNCC5)nnnc4c23)C1` [UNC10201652, 4-(8-(piperazin-1-yl)-1,2,3,4-tetrahydro-[1,2,3]triazino[4′,5′:4,5]thieno[2,3-c]isoquinolin-5-yl)morpholine], the “Efficacy in a mouse model” value [2] is given as “good efficacy”, the half-life at 1 μM [3] is given as 9.89 min and the hepatocyte CLint at 1 μM [3] is given as 140 µL/min/1e6 cells. For the same compound, the “Scaled hepatocyte CLint as % of hepatic blood flow” value ([4]; mouse hepatocytes) was > 60 % of hepatic blood flow, the “Predicted in vivo CLH” value ([4]; scaled from hepatocyte CLint) was 75.9 mL/min/kg and the “Predicted in vivo CLH” value ([4]; scaled from microsomal CLint) was 42.1 mL/min/kg. The fraction unbound at 4 h, 2 μM [5] was 0.642, the “Mean A-B Papp” value ([6]; 120 min, pH 7.4) was 5.88 cm/s (×10^−6) and the “Mean B-A Papp” value ([6]; 120 min, pH 7.4) was 15.9 cm/s (×10^−6). For the same compound, the efflux ratio at 120 min, 10 μM [7] was 2.7, the half-life at 1 μM [8, 27] was 12 min and the microsomal CLint at 1 μM [8, 27] was 115 µL/min/mg. For the same compound, the “Stability in control incubation in the absence of NADPH” value (shortened to “Stability in control incubation”) ([8]; mouse liver microsomes, without NADPH, 45 min) was “stable”, the “Area percentage in sample (% of total drug-related material by MS area)” value [9] was “ca. 92%” and the Local gut concentration [10] was “approximately 90 μM”. The IC50 [11] was 117 nM, the fraction unbound at 4 h, 2 μM [12] was 0.453 and the AUC(0-inf) ([13]; male, Swiss albino, mouse, plasma, iv, 3 mg/kg, AUCINF, IV 3 mg/kg) was 154 ng·h/mL. It also gave an AUC(0-t) ([13]; male, Swiss albino, mouse, plasma, iv, 3 mg/kg, IV 3 mg/kg) of 137 ng·h/mL, a Vd ([13]; male, Swiss albino, mouse, plasma, iv, 3 mg/kg, Vss, IV 3 mg/kg) of 16.7 L/kg and an AUC(0-t) ([13]; male, Swiss albino, mouse, plasma, po, 3 mg/kg, PO 3 mg/kg) of about 20 ng·h/mL. The Cmax ([13]; male, Swiss albino, mouse, plasma, po, 3 mg/kg, Cmax, PO 3 mg/kg) was 15.2 ng/mL, the Tmax ([13]; male, Swiss albino, mouse, plasma, po, 3 mg/kg, Tmax, PO 3 mg/kg) was 15 min and the “Tolerability / clinical signs” value ([13]; 3 mg/kg IV and PO, with and without ABT, up to 24 h post dose) was “no clinical signs were observed”. The “Plasma concentration at the 24 h time point” value ([13]; IV 3 mg/kg, 24 h) was “not detectable”, the “Decrease in plasma clearance after ABT” value ([13]; IV 3 mg/kg, ABT versus no ABT) was “ca. 2.5 fold” and the “Increase in Vss after ABT” value ([13]; IV 3 mg/kg, ABT versus no ABT) was “ca. 2 fold”. The “Increase in plasma half-life after ABT” value ([13]; IV 3 mg/kg, ABT versus no ABT) was “ca. 6 fold”, the “CL (plasma clearance)” value ([13]; IV 3 mg/kg, 3 mg/kg) was 325.0 mL/min/kg and the Vss ([13]; IV 3 mg/kg, 3 mg/kg) was 16.7 L/kg. For the same compound, the “Time of Cmax post dose” value ([13]; PO 3 mg/kg) was 15 min, the “F (oral bioavailability, from AUClast)” value ([13]; PO 3 mg/kg + ABT 50 mg/kg 2 h prior) was 184% and the “Increase in plasma Cmax after ABT” value ([13]; PO 3 mg/kg, ABT versus no ABT) was “greater than 10 fold”. The “F (oral bioavailability, from AUClast)” value ([13]; PO 3 mg/kg, 3 mg/kg) was 15% and 15^c %, the “Area percentage in sample (% of total drug-related material by MS area)” value [14] was “ca. 82%” and the half-life at 1 μM [15] was 66.4 min. The hepatocyte CLint at 1 μM [15] was 20.9 µL/min/1e6 cells, the “Scaled hepatocyte CLint as % of hepatic blood flow” value ([16]; rat hepatocytes) was > 60 % of hepatic blood flow and the “Predicted in vivo CLH” value ([16]; scaled from hepatocyte CLint) was 59.8 mL/min/kg. The “Predicted in vivo CLH” value ([16]; scaled from microsomal CLint) was 43.5 mL/min/kg, the half-life at 1 μM [17] was 11.9 min and the hepatocyte CLint at 1 μM [17] was 116 µL/min/1e6 cells. For the same compound, the “Stability in control incubation” value ([1]; human liver microsomes, without NADPH, 45 min) was “stable”, the half-life at 1 μM ([1]; human, microsomes, pH 7.4) was 28.8 min and the microsomal CLint at 1 μM ([1]; human, microsomes, pH 7.4) was 48.1 µL/min/mg. For the same compound, the “Area percentage in sample (% of total drug-related material by MS area)” value [18] was “ca. 86%”, the fraction unbound at 4 h, 2 μM [19] was 0.0548 and the “Extent of plasma protein binding” value [20] was 89%. The half-life at 1 μM [21, 28] was 7.14 min, the microsomal CLint at 1 μM [21, 28] was 194 µL/min/mg and the “Stability in control incubation” value ([21]; rat liver microsomes, without NADPH, 45 min) was “stable”. For the same compound, the “Specificity microbial versus mammalian β-glucuronidases” value [22] was “highly specific inhibitor”, the fraction unbound at 4 h, 2 μM [23] was 0.0648 and the “Area percentage in sample (% of total drug-related material by MS area)” value [24] was “ca. 48%”. The “Predicted CLH as % of hepatic blood flow” value ([25]; human) was “approximately 22 % of hepatic blood flow”, the “Predicted in vivo CLH” value ([25]; human, scaled from hepatocyte CLint) was 4.65 mL/min/kg and the “Predicted in vivo CLH” value ([25]; human, scaled from microsomal CLint) was 3.51 mL/min/kg. The “Predicted CLH in human” value ([25]; overall figure from microsomal and hepatocyte data) was 4 mL/min/kg and the fraction unbound at 4 h, 2 μM [26] was 0.618.

In the case of `C[C@]12CC[C@@H]3c4ccc(OS(=O)(=O)O)cc4CC[C@H]3[C@@H]1CCC2=O` [oestrone 3-sulfate, reference compound], the Efflux ratio [6] is reported as 105.

From paper PMC10044449 (Xenobiotica; the fate of foreign compounds in biological …, 2022)
